The test has as its target Bcl-2 (Homo sapiens, UniProt P10415). The test can be described thus: Homogeneous HTS assay for inhibitors of the Bcl-2 : Bak (72-87) BH3 domain interaction, fluorescence polarisation (2D-FIDA). Type of test: binding. As to conditions: fluorescence polarisation, fluorescent labelled Bak BH3 domain derived peptide; read-out: IC50 [μM] Bcl-2. The source says: FIG. 1 is a schematic drawing of the Bcl-2: Bak (72-87) interaction assay based on fluorescence polarisation.
The homogeneous HTS assay for inhibitors of the Bcl-2 is shown schematically in FIG. 1. BH3 domain interaction is based on fluorescence polarisation. The inherent rotational diffusion of the Bak BH3 domain derived fluorescent labelled peptide decreases upon binding to Bc1-2. This shift in rotational diffusion is quantitated using the two-dimensional fluorescence intensity distribution analysis (2D-FIDA; Kask et al. 2000, Biophys. J. 78: 1703-1713).
Two different BH3 domain derived peptide ligands were synthesised and subsequently fluorescently labelled: • a 16mer peptide covering amino acids 72-87 of the Bak protein; this peptide had been used by Wang and co-workers and Holinger and coworkers in their Bcl-2 protein binding studies; Wang and co-workers reported an equilibrium binding constant KD of ˜0.2 μM to Bcl-2 protein; • peptide sequence: GQVGRQLAIIGDDINR—N (Wang et al. 2002, Proc. Natl. Acad. Sci. U.S.A. 97: 7124-7129; Holinger et al. 1999, J. Biol. Chem. 274: 13298-13304).
A general note: In fluorescence polarisation assays a small probe gives low polarisation when free and higher when bound to something large.

Here are results for 20 compounds from patent US8759520B2, “Compounds for treating cancer” (Boehringer Ingelheim International GmbH, priority 2008, dated 2014).

Chain of Bcl-2 (P10415 whole entry, species assumed, the tested form may be a part): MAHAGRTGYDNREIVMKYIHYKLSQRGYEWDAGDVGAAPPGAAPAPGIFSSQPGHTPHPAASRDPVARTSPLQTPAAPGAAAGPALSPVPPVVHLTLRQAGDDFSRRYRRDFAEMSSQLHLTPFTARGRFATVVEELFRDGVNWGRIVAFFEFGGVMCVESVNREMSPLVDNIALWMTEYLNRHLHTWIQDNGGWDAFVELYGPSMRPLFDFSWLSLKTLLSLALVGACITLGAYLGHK

In general, IC50 refers to the concentration that inhibits the measured activity by half. As to `N=c1n(CCCOc2ccc(F)cc2)c2ccccc2n1Cc1cccc(N2CCN(Cc3ccccc3-c3ccc(Cl)cc3)CC2)c1` [Compound 27, 1-{3-[4-(4′-Chloro-biphenyl-2-ylmethyl)-piperazin-1-yl]-benzyl}-3-[3-(4-fluoro-phenoxy)-propyl]-1,3-dihydro-benzoimidazol-2-ylideneamine], the IC50 is below 10 µM. To `N=c1n(CCCOc2ccccc2)c2ccccc2n1Cc1ccc(N2CCN(Cc3ccccc3-c3ccccc3)CC2)cc1` [Compound 28, 1-[4-(4-Biphenyl-2-ylmethyl-piperazin-1-yl)-benzyl]-3-(3-phenoxy-propyl)-1,3-dihydro-benzoimidazol-2-ylideneamine] belongs below 10 µM; to `N=c1n(CCCOc2ccccc2)c2ccccc2n1Cc1cccc(N2CCN(Cc3ccccc3-c3ccccc3)CC2)c1` [Compound 29, 1-[3-(4-Biphenyl-2-ylmethyl-piperazin-1-yl)-benzyl]-3-(3-phenoxy-propyl)-1,3-dihydro-benzoimidazol-2-ylideneamine], below 10 µM.

In the case of `N=c1n(CCCOc2ccccc2)c2ccccc2n1Cc1ccc(N2CCN(Cc3ccccc3-c3ccc(Cl)cc3)CC2)cc1` [Compound 30, 1-{4-[4-(4′-Chloro-biphenyl-2-ylmethyl)-piperazin-1-yl]-benzyl}-3-(3-phenoxy-propyl)-1,3-dihydro-benzoimidazol-2-ylideneamine], the IC50 was below 10 µM. To `CC1(C)CCC(c2ccc(Cl)cc2)=C(CN2CCN(c3cccc(Cn4c(=N)n(CCCOc5ccc(F)cc5)c5ccccc54)c3)CC2)C1` [Compound 31, 1-(3-{4-[2-(4-Chloro-phenyl)-5,5-dimethyl-cyclohex-1-enylmethyl]-piperazin-1-yl}-benzyl)-3-[3-(4-fluoro-phenoxy)-propyl]-1,3-dihydro-benzoimidazol-2-ylideneamine] belongs below 10 µM; to `CC1(C)CCC(c2ccc(Cl)cc2)=C(CN2CCN(c3ccc(Cn4c(=N)n(CCCOc5ccccc5)c5ccccc54)cc3)CC2)C1` [Compound 32, 1-(4-{4-[2-(4-Chloro-phenyl)-5,5-dimethyl-cyclohex-1-enylmethyl]-piperazin-1-yl}-benzyl)-3-(3-phenoxy-propyl)-1,3-dihydro-benzoimidazol-2-ylideneamine], below 10 µM. To `N=c1n(CCSc2ccccc2)c2ccccc2n1Cc1ccc(N2CCN(Cc3ccccc3-c3ccc(Cl)cc3)CC2)cc1` [Compound 33, 1-{4-[4-(4′-Chloro-biphenyl-2-ylmethyl)-piperazin-1-yl]-benzyl}-3-(2-phenylsulfanyl-ethyl)-1,3-dihydro-benzoimidazol-2-ylideneamine] belongs below 10 µM; to `N=c1n(CCCOc2ccc(F)cc2)c2ccccc2n1Cc1csc(Cl)n1` [Compound 34, 1-(2-Chloro-thiazol-4-ylmethyl)-3-[3-(4-fluoro-phenoxy)-propyl]-1,3-dihydro-benzoimidazol-2-ylideneamine], 11 to 100 µM.

Take `N=c1n(CCCOc2ccc(F)cc2)c2ccccc2n1Cc1csc(N2CCN(Cc3ccccc3-c3ccccc3)CC2)n1` [Compound 35, 1-[2-(4-Biphenyl-2-ylmethyl-piperazin-1-yl)-thiazol-4-ylmethyl]-3-[3-(4-fluoro-phenoxy)-propyl]-1,3-dihydro-benzoimidazol-2-ylideneamine]: the half-maximal inhibitory concentration (IC50) was below 10 µM.

Regarding `N=c1n(CCCOc2ccc(F)cc2)c2ccccc2n1Cc1csc(N2CCN(Cc3ccccc3-c3ccc(Cl)cc3)CC2)n1` [Compound 36, 1-{2-[4-(4′-Chloro-biphenyl-2-ylmethyl)-piperazin-1-yl]-thiazol-4-ylmethyl}-3-[3-(4-fluoro-phenoxy)-propyl]-1,3-dihydro-benzoimidazol-2-ylideneamine], the IC50 was below 10 µM. To `CC1(C)CCC(c2ccc(Cl)cc2)=C(CN2CCN(c3nc(Cn4c(=N)n(CCCOc5ccc(F)cc5)c5ccccc54)cs3)CC2)C1` [Compound 37, 1-(2-{4-[2-(4-Chloro-phenyl)-5,5-dimethyl-cyclohex-1-enylmethyl]-piperazin-1-yl}-thiazol-4-ylmethyl)-3-[3-(4-fluoro-phenoxy)-propyl]-1,3-dihydro-benzoimidazol-2-ylideneamine] belongs below 10 µM; to `N=c1n(CCCOc2ccc(F)cc2)c2ccccc2n1Cc1ccccc1N1CCN(Cc2ccccc2-c2ccccc2)CC1` [Compound 38, 1-[2-(4-Biphenyl-2-ylmethyl-piperazin-1-yl)-benzyl]-3-[3-(4-fluoro-phenoxy)-propyl]-1,3-dihydro-benzoimidazol-2-ylideneamine], below 10 µM; to `N=c1n(CCCOc2ccc(F)cc2)c2ccccc2n1Cc1ccc(CN2CCN(Cc3ccc(Cl)cc3)CC2)cc1` [Compound 39, 1-{4-[4-(4-Chloro-benzyl)-piperazin-1-ylmethyl]-benzyl}-3-[3-(4-fluoro-phenoxy)-propyl]-1,3-dihydro-benzoimidazol-2-ylideneamine], 11 to 100 µM. To `N=c1n(CCCOc2ccc(F)cc2)c2ccccc2n1Cc1ccc(CN2CCN(c3ccccc3)CC2)cc1` [Compound 40, 1-[3-(4-Fluoro-phenoxy)-propyl]-3-[4-(4-phenyl-piperazin-1-ylmethyl)-benzyl]-1,3-dihydro-benzoimidazol-2-ylideneamine] belongs 11 to 100 µM; to `N=c1n(CCCOc2ccc(F)cc2)c2ccccc2n1Cc1ccc(CN2CCN(c3cccc(Cl)c3)CC2)cc1` [Compound 41, 1-{4-[4-(3-Chloro-phenyl)-piperazin-1-ylmethyl]-benzyl}-3-[3-(4-fluoro-phenoxy)-propyl]-1,3-dihydro-benzoimidazol-2-ylideneamine], 11 to 100 µM; to `N=c1n(CCCOc2ccc(F)cc2)c2ccccc2n1Cc1ccc(CN2CCN(c3ccc(Cl)cc3)CC2)cc1` [Compound 42, 1-{4-[4-(4-Chloro-phenyl)-piperazin-1-ylmethyl]-benzyl}-3-[3-(4-fluoro-phenoxy)-propyl]-1,3-dihydro-benzoimidazol-2-ylideneamine], 11 to 100 µM. To `N=c1n(CCCOc2ccc(F)cc2)c2ccccc2n1Cc1ccc(CNCC(=O)Nc2ccccc2Cl)cc1` [Compound 43, N-(2-Chloro-phenyl)-2-(4-{3-[3-(4-fluoro-phenoxy)-propyl]-2-imino-2,3-dihydro-benzoimidazol-1-ylmethyl}-benzylamino)-acetamide] belongs 11 to 100 µM; to `N=c1n(CCCOc2ccc(F)cc2)c2ccccc2n1Cc1ccc(CN2CCN(c3ccccc3Cl)CC2)cc1` [Compound 44, 1-{4-[4-(2-Chloro-phenyl)-piperazin-1-ylmethyl]-benzyl}-3-[3-(4-fluoro-phenoxy)-propyl]-1,3-dihydro-benzoimidazol-2-ylideneamine], 11 to 100 µM. In the case of `N=c1n(CCCOc2ccc(F)cc2)c2ccccc2n1Cc1ccc(CNCC(=O)Nc2ccc(Cl)cc2)cc1` [Compound 45, N-(4-Chloro-phenyl)-2-(4-{3-[3-(4-fluoro-phenoxy)-propyl]-2-imino-2,3-dihydro-benzoimidazol-1-ylmethyl}-benzylamino)-acetamide], the IC50 lay within 11 to 100 µM. To `N=c1n(CCCOc2ccc(F)cc2)c2ccccc2n1Cc1ccc(CN2CCN(Cc3ccccc3)CC2)cc1` [Compound 46, 1-[4-(4-Benzyl-piperazin-1-ylmethyl)-benzyl]-3-[3-(4-fluoro-phenoxy)-propyl]-1,3-dihydro-benzoimidazol-2-ylideneamine] belongs below 10 µM.
